Experimental data: patent US7972870B2, “Methods and compositions relating to the regulation of MUC1 by HSF1 and STAT3” (Dana-Farber Cancer Institute, Inc., priority 2007, dated 2011)

Columns and labels:
[1] = tested on: MUC1 expression in MCF10A cells; test: MUC1 expression by immunoblot of whole-cell lysates after stimulation; assay type: cell-based
Description: FIG. 2A is a pair of photographs of immunoblots depicting the induction of MUC1 expression following heregulin (HRG) treatment. MCF10A cells were cultured without (“0”) and with HRG (20 ng/mL) for 24 (“24”) and 48 (“48”) hours. Cells were harvested at the indicated time points and lysed for western blot analysis. Whole-cell lysates were subjected to sodium dodecyl sulfate polyacrylamide gel electrophoresis (SDS-PAGE) under reducing conditions and proteins were detected (immunoblotted, “IB”) using antibodies specific for MUC1-C and β-actin (top and bottom photographs, respectively). The relative positions (e.g., the molecular weights) of the proteins are reported in kilodaltons (kDa) and indicated to the left of each of the immunoblots (e.g., 25 kDa or 45 kDa). “HRG” indicates treatment with heregulin.
FIG. 2C is a photograph of an immunoblot depicting the induction of MUC1 expression following IL-6 treatment. MCF10A cells were treated without (“0”) and with IL-6 (20 ng/mL) and then cultured at 37° C. for 24 (“24”) and 48 (“48”) hours. Cells were harvested at the indicated time points and lysed for western blot analysis. Whole-cell lysates were subjected to SDS-PAGE under reducing conditions and proteins were detected (immunoblotted, “IB”) using antibodies specific for MUC1-C. The relative positions (e.g., the molecular weights) of the proteins are reported in kilodaltons (kDa) and indicated to the left of the immunoblot. “IL-6” indicates IL-6 treatment.
Heregulin treatment of cells results in (i) activation of ErbB2, ErbB3, and ErbB4 and (ii) induction of the formation of complexes between these receptors and MUC1. To assess if MUC1 is regulated by heregulin in normal cells, the induction of MUC1 expression by heregulin treatment was assessed in the immortalized, but non-cancer breast cell line MCF10A. […] As a control for loading, β-actin was detected using anti-β-actin (Sigma, St. Louis, Mo.). […]

GST-STAT3 = GST-STAT3 (Homo sapiens, UniProt P40763); test: In vitro GST pull-down binding assay; conditions: purified His-tagged MUC1-CD, GST as control, immunoblot
Chain of GST-STAT3 (P40763 whole entry): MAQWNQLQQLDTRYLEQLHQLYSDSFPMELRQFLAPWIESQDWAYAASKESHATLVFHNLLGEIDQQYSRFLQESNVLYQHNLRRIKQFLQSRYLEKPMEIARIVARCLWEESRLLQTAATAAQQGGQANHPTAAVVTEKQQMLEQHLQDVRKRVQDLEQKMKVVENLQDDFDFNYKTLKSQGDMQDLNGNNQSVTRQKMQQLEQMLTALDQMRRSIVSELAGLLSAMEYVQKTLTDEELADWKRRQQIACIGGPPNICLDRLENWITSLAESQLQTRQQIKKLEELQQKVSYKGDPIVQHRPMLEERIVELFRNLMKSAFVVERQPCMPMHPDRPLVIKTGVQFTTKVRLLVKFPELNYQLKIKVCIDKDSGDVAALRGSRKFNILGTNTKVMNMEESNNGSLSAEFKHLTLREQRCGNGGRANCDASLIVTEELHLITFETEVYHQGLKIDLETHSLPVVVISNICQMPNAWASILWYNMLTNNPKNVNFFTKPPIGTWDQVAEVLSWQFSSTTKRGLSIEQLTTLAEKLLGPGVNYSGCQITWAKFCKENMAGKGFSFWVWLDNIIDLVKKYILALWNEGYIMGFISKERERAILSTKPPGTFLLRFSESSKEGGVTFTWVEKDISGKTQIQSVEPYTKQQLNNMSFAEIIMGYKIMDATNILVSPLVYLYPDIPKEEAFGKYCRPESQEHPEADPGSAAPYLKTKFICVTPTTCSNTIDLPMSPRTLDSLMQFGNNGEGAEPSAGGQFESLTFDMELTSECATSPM
Description: The binding of MUC1 to HSF1 could be direct or indirect, for example, through a third protein. To determine if the interaction between MUC1 and HSF1 is a direct, physical interaction, in vitro binding assays was performed. GST- and GST-STAT3 polypeptides were incubated with purified His-tagged MUC1-CD (similar to GST-HSF1-His-MUC1 experiments described above). The protein mixtures were then incubated with glutathione beads, which bind to the GST proteins and associated binding partners if present. The glutathione bead adsorbates were washed and immunoblotted with antibodies specific for His tags or to MUC1-C (as described above).

## IL-6: inflammatory cytokine IL-6 (R&D Systems) that activates STAT3 through the Janus kinases
[1]; 0.1% serum overnight, 20 ng/mL IL-6, expected result
  MUC1 expression: induce both STAT3 phosphorylation (activation) and MUC1 expression
[1]; IL-6 20 ng/mL, 24 and 48 hours (FIG. 2C)
  MUC1 expression: induces MUC1 expression

B1: HRG: heregulin (HRG) (Calbiochem-Novabiochem), ligand activating ErbB2, ErbB3 and ErbB4 (protein, listed as Homo sapiens)
chain: MEIYSPDMSEVAAERSSSPSTQLSADPSLDGLPAAEDMPEPQTEDGRTPGLVGLAVPCCACLEAERLRGCLNSEKICIVPILACLVSLCLCIAGLKWVFVDKIFEYDSPTHLDPGGLGQDPIISLDATAASAVWVSSEAYTSPVSRAQSESEVQVTVQGDKAVVSFEPSAAPTPKNRIFAFSFLPSTAPSFPSPTRNPEVRTPKSATQPQTTETNLQTAPKLSTSTSTTGTSHLVKCAEKEKTFCVNGGECFMVKDLSNPSRYLCKCPNEFTGDRCQNYVMASFYSTSTPFLSLPE
[1]; 20 ng/mL HRG, anti-MUC1-C immunoblot (FIG. 2A)
  MUC1 protein expression: increase in MUC1 protein expression

B2: His-tagged MUC1: purified His-tagged MUC1 cytoplasmic domain (MUC1-CD, SEQ ID NO:2) (protein, listed as Homo sapiens)
chain: CQCRRKNYGQLDIFPARDTYHPMSEYPTYHTHGRYVPPSSTDRSPYEKVSAGNGGSSLSYTNPAVAAASANL
modifications: His tag
GST-STAT3
  binding to GST-STAT3 (glutathione bead adsorbates): present in GST-STAT3 adsorbates but not GST-adsorbates
